Tests used:
BALB/c male mice [1] = test: Training Mice in the Morris Water labyrinth, scopolamine; format: in vivo; details: scopolamine 0.6 mg/kg; 1.2.1(5)HCl 0.1 mg/kg, 1.2.1(1)HCl 1 mg/kg, tacrine 3 mg/kg
Method: A circular pool of 100 cm diameter and of 30 cm sides was used. It was filled with water at 20-22° C. A circular ceramic platform of 14 cm height was placed in the pool. The behavior of the animals was registered using an automated computer video system in addition with software package of movement analyzer Any-maze (Stoelting Colo., US). The experiments were carried out on aged male mice of BALB/c line weighing 20-24 grams. Before the experiments mice fit for learning were selected. This was done by placing the platform 1 cm above the water level and putting an animal on the platform for 20 seconds. Then the mouse was put in the water on the opposite side of the pool and allowed to find the platform and climb onto it for 60 seconds, where it was left for additional 20 seconds. After that the mouse was repeatedly immersed in the water on the opposite side of the pool and allowed to search for the platform. If it failed in finding the platform within 60 seconds the experimentator helped it to find the platform and climb onto it. If the mice couldn't find the platform itself in two consecutive attempts it was excluded from the experiment. During the next two days the platform was placed 0.5 centimeters lower the water level. Every day the mice were given four attempts for finding the platform within 60 seconds. The time interval between the attempts was 20 seconds, during which the mice stayed on the platform. Every day before the first attempt the mice was placed on the platform for 20 seconds. The time needed for finding and climbing the platform was registered. The animals were sunk in water in two different places on the side of the pool opposite to the platform. […] The animals of the control group were injected with physiological solution. At least 8 animals were used in each group. On the third day the platform was removed and each animal was placed in the pool once for a period of 60 seconds. The time each mouse spent in the area where the platform had been located during the previous days was registered. […]

SHK male mice = test: Recognition of New Objects by Mice Under Scopolamine and MK-801; format: in vivo; details: scopolamine 1 mg/kg and MK-801 0.2 mg/kg
Method: The experiments were carried out in a closed cross shaped labyrinth which consisted of 4 peripheral sections connected with the central chamber via a 7×7 cm hole. The labyrinth was made of black plastic and its sections were of 14×14×14 cm size. The top cover of the labyrinth was transparent.
A mouse was placed in the central section of the labyrinth and allowed to investigate the environment. A mouse was considered to have entered a section once all of its four paws were inside the chamber. A test was considered to be completed when the mouse had moved 12 times between the sections, having made a total of 13 visits. The floor of the labyrinth was cleaned after each animal.
With each mouse the test was carried out twice with 1 hour interval.
During the first test, each section of the labyrinth contained a circular plastic cup of 3 cm height and 7 cm diameter. During the second test the cover in each of the two opposing sections was replaced by a conical glass bulb of 7 cm height and 4 cm across the bottom. The time that the mice spent in each section of the labyrinth was registered and the index of new object recognition was calculated as the ratio of the time spent in the sections with the bulbs to the time spent in all sections of the labyrinth. If no preference is given to the sections with new objects the index is 0.5.
When new objects appear the mice spend more time in the section containing them that results in an increased recognition index. Scopolamine (1 mg/kg) and MK-801 (0.2 mg/kg) disturbed learning (memory) that leads to lowering of the recognition index.

[2] = tested on: calcium canals regulated by the intracellular calcium depot; test: Histamine-induced calcium stream in SK-N-SH cells, Phase 2 (lowering of intracellular calcium concentration); format: cell-based; details: Homo sapiens, 10 μM histamine, Fura 2 AM, Phase 2: discharge of intraplasmatic calcium
BALB/c male mice [3] = test: Passive Avoidance of Mice in a Shuttle Chamber, scopolamine or MK-801 (Example 8); format: in vivo; details: scopolamine 0.3 mg/kg or MK-801 0.1 mg/kg
Method: Example 7. […] A shuttle chamber (Ugo Basile, Italy) consisted of two sections was used. […] The sections were connected via a hole which could be shut with a vertical door. The floor was made of transverse metal bars on which DC current impulses could be fed. Experiments were carried out on aged male mice of line BALB/c weighing 20-24 grams.
On the first day of the experiment 30 minutes before training the mice were injected intraintestinally with physiological solution of scopolamine (0.3 mg/kg) or scopolamine in combination with antagonists of 5-HT6 receptors 1.2.1(2)HCl, 1.2.1(4)HCl or 1.2.1(5)HCl. Each group consisted of at least 8 animals. The animals were placed in the light section, and the latent period of the first entry into the dark chamber was registered. Then the vertical door was closed and the animal was punished by 0.6 mA DC current for 3 seconds. After that the animal was carried back to its living cell. In 22-24 hours the same animal was placed in the light section of the shuttle chamber once again and the latent period before its entry into the dark section, the total time of its stay in the light section and the number of entries into the dark section were registered. Each observation lasted for 5 minutes.
The experiment was carried out in the same way as in example 7. On the first day 30 minutes before training the mice were injected intra-intestinally with a physiological solution of scopolamine (0.3 mg/kg) or MK-801(0.1 mg/kg).

BALB/c male mice [4] = test: Mice Behavior an Elevated Cross Shaped Labyrinth; format: in vivo; details: preference index for open sections, number of defecations
Description: The length of each section in the labyrinth is 30 cm, the width is 5 cm, the height of the walls is 15 cm. Two opposite sections are closed by transparent walls on the sides and on the butt ends, the other two sections are lit and opened. A mouse was placed in the center of the labyrinth and for the next five minutes the number of entries the open and closed sections and the time spent in each type of section was registered. […] The animals usually avoid the open sections (the preference index is between 0.2 and 0.3).

BALB/c male mice [5] = test: Passive Avoidance of Mice in a Shuttle Chamber, memory disturbed by scopolamine (Example 7); format: in vivo; details: scopolamine 0.3 mg/kg, injected 30 minutes before training
Method: Example 7. […] A shuttle chamber (Ugo Basile, Italy) consisted of two sections was used. […] The sections were connected via a hole which could be shut with a vertical door. The floor was made of transverse metal bars on which DC current impulses could be fed. Experiments were carried out on aged male mice of line BALB/c weighing 20-24 grams. […] Each group consisted of at least 8 animals. The animals were placed in the light section, and the latent period of the first entry into the dark chamber was registered. Then the vertical door was closed and the animal was punished by 0.6 mA DC current for 3 seconds. After that the animal was carried back to its living cell. In 22-24 hours the same animal was placed in the light section of the shuttle chamber once again and the latent period before its entry into the dark section, the total time of its stay in the light section and the number of entries into the dark section were registered. Each observation lasted for 5 minutes. The experiment was carried out during the day time in an isolated laboratory using white noise at a level of about 70 decibel above the human hearing threshold. Scopolamine causes the disturbance of training (memory loss) which results in […]. The fact that 5-HT6 receptor antagonists can improve the learning ability that has been disturbed by scopolamine is regarded as evidence for their nootropic effect.

| SMILES | improvement of mice's training (Morris water labyrinth, FIGS. 11-12) (BALB/c male mice [1]) | nootropic action (new object recognition, FIG. 13-14) (SHK male mice) | EC50 [2] | nootropic action (passive avoidance, FIGS. 5-10) (BALB/c male mice [3]) | tranquilizing action (elevated cross shaped labyrinth, figure 19-21) (BALB/c male mice [4]) | nootropic action (passive avoidance, FIGS. 2-4) (BALB/c male mice [5]) |
| --- | --- | --- | --- | --- | --- | --- |
| Cc1ccc2c(c1)c1c(n2CCc2ccccc2)CCN(C)C1.Cl [1.2.1(1)HCl, 2,8-dimethyl-5-(2-phenylethyl)-2,3,4,5-tetrahydro-1H-pyrido[4,3-b]indole hydrochloride] | statistically significant improvement of mice's training | nootropic action, the level of which is the most prominent | 0.15 µM | highest activity | exhibit a tranquilizing action, which is the most prominent | – |
| Cc1ccc2c(c1)c1c(n2CCc2ccc(C)nc2)CCN(C)C1.Cl [1.2.1(5)HCl, 2,8-dimethyl-5-[2-(6-methylpyridin-3-yl)ethyl]-2,3,4,5-tetrahydro-1H-pyrido[4,3-b]indole hydrochloride] | statistically significant improvement of mice's training | nootropic action | 1.58 µM | exhibit a nootropic action | exhibit a tranquilizing action | exhibit a nootropic action |
| O=C1CC2(CCCC2)CC(=O)N1CCCCN1CCN(c2ncccn2)CC1 [Buspiron] | – | – | – | – | exhibit a tranquilizing action | – |
| Nc1c2c(nc3ccccc13)CCCC2 [tacrine] | statistically significant improvement of mice's training | – | – | – | – | – |

— patent US20190233409A1, “SUBSTITUTED 2,3,4,5-TETRAHYDRO-1H-PYRIDO[4,3-B]INDOLES, METHODS FOR USE THEREOF” (priority 2017, published 2019)
